39 compounds from EP4268824A1 (Manros Therapeutics, priority 2022, dated 2023) can be followed below.

Molecules are shown by their SMILES.

A short description of this data set: LogD determined by HPLC. The format is physicochemical.

Usually chromatographic logD stands for lipophilicity estimated from chromatographic retention. Low values mean lower lipophilicity, high ones higher lipophilicity. Regarding `CC(C)c1cnc2c(NCc3ccccc3)nc(NC3CCCC[C@@H]3O)nn12` (stereo in doubt) [compound 62, (1S)-2-[[4-(Benzylamino)-7-isopropyl-imidazo[2,1-f][1,2,4]triazin-2-yl]amino]cyclohexanol], the chromatographic logD was found to be 3.6.

For `COCCNc1nc(NCc2ccccc2)c2ncc(C(C)C)n2n1` [compound 1, N4-Benzyl-7-isopropyl-N2-(2-methoxyethyl)imidazo[2,1-f][1,2,4]triazine-2,4-diamine], the chromatographic logD is 3.5.

`CC(C)c1cnc2c(NCc3ccccc3)nc(NCCOc3ccccc3)nn12` [compound 2, N4-Benzyl-7-isopropyl-N2-(2-phenoxyethyl)imidazo[2,1-f][1,2,4]triazine-2,4-diamine] came in with a chromatographic logD of 4.74.

`CSCCNc1nc(NCc2ccccc2)c2ncc(C(C)C)n2n1` [compound 3, N4-Benzyl-7-isopropyl-N2-(2-methylsulfanylethyl)imidazo[2,1-f][1,2,4]triazine-2,4-diamine]: the chromatographic logD worked out at 4.13.

Compound `CC(C)c1cnc2c(NCc3ccccc3)nc(NCCCN(C)C)nn12` [compound 5, N4-Benzyl-N2-[3-(dimethylamino)propyl]-7-isopropyl-imidazo[2,1-f][1,2,4]triazine-2,4-diamine] registered a chromatographic logD of 2.1.

For `CC(C)c1cnc2c(NCc3ccccc3)nc(NC(C)(C)CO)nn12` [compound 18, 2-[[4-(Benzylamino)-7-isopropyl-imidazo[2,1-f][1,2,4]triazin-2-yl]amino]-2-methyl-propan-1-ol], the chromatographic logD turned out to be 3.32.

Regarding `CC(C)c1cnc2c(NCc3ccccc3)nc(NC3CCCCC3)nn12` [compound 59, N4-Benzyl-N2-cyclohexyl-7-isopropyl-imidazo[2,1-f][1,2,4]triazine-2,4-diamine], the chromatographic logD stood at 5.47.

As for `CC(C)c1cnc2c(NCc3ccccc3)nc(NC3CCC(F)(F)CC3)nn12` [compound 60, N4-Benzyl-N2-(4,4-difluorocyclohexyl)-7-isopropyl-imidazo[2,1-f][1,2,4]triazine-2,4-diamine], the chromatographic logD stood at 4.57.

`CC(C)c1cnc2c(NCc3ccccc3)nc(NC3CCN(C)CC3)nn12` [compound 61, N4-Benzyl-7-isopropyl-N2-(1-methyl-4-piperidyl)imidazo[2,1-f][1,2,4]triazine-2,4-diamine] had a chromatographic logD of 2.14.

`CC(C)c1cnc2c(NCc3ccccc3)nc(NC3CCC(O)CC3)nn12` (stereo not drawn) [compound 63, 4-[[4-(Benzylamino)-7-isopropyl-imidazo[2,1-f][1,2,4]triazin-2-yl]amino]cyclohexanol] returned a chromatographic logD of 2.93.

`COC1CCC(Nc2nc(NCc3ccccc3)c3ncc(C(C)C)n3n2)CC1` (stereo not drawn) [compound 64, N4-Benzyl-7-isopropyl-N2-(4-methoxycyclohexyl)imidazo[2,1-f][1,2,4]triazine-2,4-diamine]: the chromatographic logD stood at 4.48.

Turning to `CC(C)c1cnc2c(NCc3ccccc3)nc(NC3CCC[C@@H]3O)nn12` (stereo partly drawn) [compound 65, (1S)-2-[[4-(Benzylamino)-7-isopropyl-imidazo[2,1-f][1,2,4]triazin-2-yl]amino]cyclopentanol], the chromatographic logD came out at 3.26.

For `CC(C)c1cnc2c(NCc3cccnc3)nc(NC3CCC[C@@H]3O)nn12` (stereo partly drawn) [compound 66, (1S)-2-[[7-Isopropyl-4-(3-pyridylmethylamino)imidazo[2,1-f][1,2,4]triazin-2-yl]amino]cyclopentanol], the chromatographic logD stood at 2.36.

In the case of `CO[C@H]1CCCC1Nc1nc(NCc2ccccc2)c2ncc(C(C)C)n2n1` (stereo partly drawn) [compound 67, N4-Benzyl-7-isopropyl-N2-[(2S)-2-methoxycyclopentyl]imidazo[2,1-f][1,2,4]triazine-2,4-diamine], the chromatographic logD was found to be 4.25.

`CO[C@H]1CCCC1Nc1nc(NCc2cccnc2)c2ncc(C(C)C)n2n1` (stereo partly drawn) [compound 68, 7-Isopropyl-N2-[(2S)-2-methoxycyclopentyl]-N4-(3-pyridylmethyl)imidazo[2,1-f][1,2,4]triazine-2,4-diamine] gave a chromatographic logD of 3.04.

As for `CC(C)c1cnc2c(NCc3ccccc3)nc(N3CCC(O)C3)nn12` (stereo not drawn) [compound 76, 1-[4-(Benzylamino)-7-isopropyl-imidazo[2,1-f][1,2,4]triazin-2-yl]pyrrolidin-3-ol], the chromatographic logD turned out to be 3.16.

Compound `CC(C)c1cnc2c(NCc3cccnc3)nc(N3CCC(O)C3)nn12` (stereo not drawn) [compound 77, 1-[7-Isopropyl-4-(3-pyridylmethylamino)imidazo[2,1-f][1,2,4]triazin-2-yl]pyrrolidin-3-ol] registered a chromatographic logD of 2.29.

As for `CC(C)c1cnc2c(NCc3ccccc3)nc(N3CC4(COC4)C3)nn12` [compound 78, N-Benzyl-7-isopropyl-2-(2-oxa-6-azaspiro[3.3]heptan-6-yl)imidazo[2,1-f][1,2,4]triazin-4-amine], the chromatographic logD turned out to be 3.42.

In turn, `COC1CCN(c2nc(NCc3ccccc3)c3ncc(C(C)C)n3n2)C1` (stereo not drawn) [compound 79, N-Benzyl-7-isopropyl-2-(3-methoxypyrrolidin-1-yl)imidazo[2,1-f][1,2,4]triazin-4-amine] came in with a chromatographic logD of 4.42.

For the compound `COC1CCN(c2nc(NCc3cccnc3)c3ncc(C(C)C)n3n2)C1` (stereo not drawn) [compound 80, 7-Isopropyl-2-(3-methoxypyrrolidin-1-yl)-N-(3-pyridylmethyl)imidazo[2,1f][1,2,4]triazin-4-amine], the chromatographic logD was 3.06.

For `COC1CCN(c2nc(NCc3ccccc3)c3ncc(C(C)C)n3n2)CC1` [compound 81, N-Benzyl-7-isopropyl-2-(4-methoxy-1-piperidyl)imidazo[2,1-f][1,2,4]triazin-4-amine], the chromatographic logD is 4.6.

`COC1CCN(c2nc(NCc3cccnc3)c3ncc(C(C)C)n3n2)CC1` [compound 82, 7-Isopropyl-2-(4-methoxy-1-piperidyl)-N-(3-pyridylmethyl)imidazo[2,1-f][1,2,4]triazin-4-amine] registered a chromatographic logD of 3.15.

The compound `CC(C)c1cnc2c(NCc3ccccc3)nc(N3CCSCC3)nn12` [compound 83, N-Benzyl-7-isopropyl-2-thiomorpholino-imidazo[2,1-f][1,2,4]triazin-4-amine] displayed a chromatographic logD of 5.05.

Take `CC(C)c1cnc2c(NCc3cccnc3)nc(N3CCSCC3)nn12` [compound 84, 7-Isopropyl-N-(3-pyridylmethyl)-2-thiomorpholino-imidazo[2,1-f][1,2,4]triazin-4-amine]: the chromatographic logD was 3.5.

As to `CC(C)c1cnc2c(NCc3ccccc3)nc(N3CCC(O)CC3)nn12` [compound 85, 1-[4-(Benzylamino)-7-isopropyl-imidazo[2,1-f][1,2,4]triazin-2-yl]piperidin-4-ol], the chromatographic logD was 3.19.

`CC(C)c1cnc2c(NCc3cccnc3)nc(N3CCC(O)CC3)nn12` [compound 86, 1-[7-Isopropyl-4-(3-pyridylmethylamino)imidazo[2,1-f][1,2,4]triazin-2-yl]piperidin-4-ol] displayed a chromatographic logD of 2.3.

As for `CC(C)c1cnc2c(NCc3ccccc3)nc(N3CCCCC3CCO)nn12` (stereo not drawn) [compound 87, 2-[1-[4-(Benzylamino)-7-isopropyl-imidazo[2,1-f][1,2,4]triazin-2-yl]-2-piperidyl]ethanol], the chromatographic logD was found to be 2.71.

The compound `CC(C)c1cnc2c(NCc3ccccc3)nc(NCC3CCN(C)CC3)nn12` [compound 104] came in with a chromatographic logD of 2.2.

`CC(C)c1cnc2c(NCc3ccccc3)nc(NCC3CCCCC3)nn12` [compound 105, N4-Benzyl-N2-(cyclohexylmethyl)-7-isopropyl-imidazo[2,1-f][1,2,4]triazine-2,4-diamine] had a chromatographic logD of 5.9.

On to `CC(C)c1cnc2c(NCc3ccccc3)nc(NCCC3CCCN3C)nn12` (stereo not drawn) [compound 106, N4-Benzyl-7-isopropyl-N2-[2-(1-methylpyrrolidin-2-yl)ethyl]imidazo[2,1-f][1,2,4]triazine-2,4-diamine], for which the chromatographic logD amounted to 2.16.

For `CC(C)c1cnc2c(NCc3ccccc3)nc(Nc3nccn3C)nn12` [compound 109, N4-Benzyl-7-isopropyl-N2-(1-methylimidazol-2-yl)imidazo[2,1-f][1,2,4]triazine-2,4-diamine], the chromatographic logD was 3.12.

In turn, `CC(C)c1cnc2c(NCc3ccccc3)nc(Nc3cnn(C)c3)nn12` [compound 110, N4-Benzyl-7-isopropyl-N2-(1-methylpyrazol-4-yl)imidazo[2,1-f][1,2,4]triazine-2,4-diamine] returned a chromatographic logD of 2.89.

`CC(C)c1cnc2c(NCc3ccccc3)nc(Nc3ccccc3)nn12` [compound 114, N4-Benzyl-7-isopropyl-N2-phenyl-imidazo[2,1-f][1,2,4]triazine-2,4-diamine] displayed a chromatographic logD of 4.64.

In the case of `CC(C)c1cnc2c(NCc3ccccc3)nc(NCc3cnn(C)c3)nn12` [compound 115, N4-Benzyl-7-isopropyl-N2-[(1-methylpyrazol-4-yl)methyl]imidazo[2,1-f][1,2,4]triazine-2,4-diamine], the chromatographic logD stood at 2.98.

As to `CC(C)c1cnc2c(NCc3ccccc3)nc(NCc3nccn3C)nn12` [compound 116, N4-Benzyl-7-isopropyl-N2-[(1-methylimidazol-2-yl)methyl]imidazo[2,1-f][1,2,4]triazine-2,4-diamine], the chromatographic logD was 2.49.

As to `CC(C)c1cnc2c(NCc3ccccc3)nc(NCc3ccccc3)nn12` [compound 121, N2,N4-Dibenzyl-7-isopropyl-imidazo[2,1-f][1,2,4]triazine-2,4-diamine], the chromatographic logD stood at 4.6.

`CC(C)c1cnc2c(NCc3ccccc3)nc(NCc3ccc(F)cc3)nn12` [compound 122, N4-Benzyl-N2-[(4-Fluorophenyl)methyl]-7-isopropyl-imidazo[2,1-f][1,2,4]triazine-2,4-diamine] registered a chromatographic logD of 4.64.

Regarding `CC(C)c1cnc2c(NCc3ccccc3)nc(NCc3ccccn3)nn12` [compound 123, N4-Benzyl-7-isopropyl-N2-(2-pyridylmethyl)imidazo[2,1-f][1,2,4]triazine-2,4-diamine], the chromatographic logD was found to be 3.26.

On to `CC(C)c1cnc2c(NCc3ccccc3)nc(NCc3cccnc3)nn12` [compound 124, N4-Benzyl-7-isopropyl-N2-(3-pyridylmethyl)imidazo[2,1-f][1,2,4]triazine-2,4-diamine], for which the chromatographic logD was 3.12.
